As a reminder, the pIC50 is the IC50 on a negative log10 scale, so that one unit is a factor of ten.

pIC50: −log10 of the molar value.

In this experiment the target is T1, human CRTH2 (Homo sapiens, UniProt Q9Y5Y4).
T1 sequence (Q9Y5Y4 1-395): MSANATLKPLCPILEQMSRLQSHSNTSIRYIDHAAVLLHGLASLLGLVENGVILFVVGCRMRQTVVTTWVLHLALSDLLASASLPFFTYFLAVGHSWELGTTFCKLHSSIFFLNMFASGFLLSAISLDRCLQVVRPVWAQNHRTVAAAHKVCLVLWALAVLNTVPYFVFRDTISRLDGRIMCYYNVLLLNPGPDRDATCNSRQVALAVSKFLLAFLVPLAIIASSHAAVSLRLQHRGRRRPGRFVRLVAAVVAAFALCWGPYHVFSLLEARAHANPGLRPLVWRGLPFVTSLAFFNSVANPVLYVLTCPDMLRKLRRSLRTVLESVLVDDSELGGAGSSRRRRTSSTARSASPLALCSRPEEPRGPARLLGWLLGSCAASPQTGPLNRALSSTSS
Nature of the experiment: Human CRTH2 Receptor Binding Assay (whole cell, [3H]ramatroban). Conditions: whole CHO-K1 cells stably expressing human CRTH2 and G-alpha16; 20 nM [3H]ramatroban; 1 hour, room temperature. On the set-up: expressed in transfected cells; host or cells: CHO-K1. An excerpt: A whole cell receptor binding assay using [^3H]ramatroban as the competing radioactive ligand was employed to evaluate the compound binding activity to human CRTH2. The radioactive ligand [^3H]ramatroban was synthesized according to Sugimoto et. al. (Eur. J. Pharmacol. 524, 30-37, 2005) to a specific activity of 42 Ci/mmol.
A cell line stably expressing human CRTH2 was established by transfecting CHO-K1 cells with two mammalian expression vectors that harbored human CRTH2 and G-alpha16 cDNAs, respectively, using FuGene® 6 transfection reagent (from Roche). Stable clones expressing CRTH2 were selected by staining each clone with BM16 (BD Pharmingen™ from BD Biosciences, a division of Becton, Dickinson and Company), which is a rat monoclonal antibody to human CRTH2. The cells were maintained as monolayer cultures in Ham's F-12 medium containing 10% fetal bovine serum, 100 units/mL penicillin, 100 μg/mL streptomycin, 2 mM glutamine, 0.5 mg/mL G418 (geneticin) for CRTH2, and 0.2 mg/mL hygromycin-B (for G-alpha 16). For whole cell receptor binding assay, the monolayer cells were rinsed once with PBS (phosphate buffered saline), dissociated using ethylenediaminetetraacetate (Versene™ EDTA from Lonza Inc.), and suspended in PBS containing 10 mM MgCl2 and 0.06% BSA (bovine serum albumin) at 1.5×10^6 cells/mL.
The binding reactions (0.2 mL) were performed in 96-well plates at room temperature in PBS containing 1.5×10^5 cells, 10 mM MgCl2, 0.06% BSA, 20 nM [^3H]ramatroban, and test compound at various concentrations. After 1 hour of binding reactions, the cells were harvested on GF™/B filter microplates (microtiter plates with embedded glass fiber from PerkinElmer, Inc.) and washed 5 times with PBS using a Filtermate™ Harvester (a cell harvester that harvests and washes cells from microplates from PerkinElmer, Inc.). The radioactivities bound to the cells were determined using a microplate scintillation counter (TopCount® NXT, from PerkinElmer, Inc.) after adding 50 μL of Microscint™ 20 scintillation fluid (from PerkinElmer, Inc.) to each well of the filter plates. The radioactivity from non-specific binding was determined by replacing compound with 10 μM of 15(R)-15-methyl PGD2 (from Cayman Chemical Company) in the reaction mixtures. The radioactivity bound to the cells in the absence of compound (total binding) was determined by replacing compound with 0.25% of DMSO (dimethyl sulfoxide) in the reaction mixture. Specific binding data were obtained by subtracting the radioactivity of non-specific binding from each binding data.
The IC50 value is defined as the concentration of the tested compound that is required for 50% inhibition of total specific binding. In order to calculate the IC50 value, the percent inhibition data were determined for 7 concentrations for each compound. The percent inhibition for a compound at each concentration was calculated according to the following formula, [1-(specific binding in the presence of compound)/(total specific binding)]×100. The IC50 value was then obtained by fitting the percent inhibition data to a sigmoidal dose-response (4 parameter logistic) model in the XLfit® software Excel add-in program [from ID Business Solutions Ltd., model 205, where F(x)=(A+(B−A)/(1+((C/x)^D)))].
With `O=C(O)Cc1cc(OC2CCN(C(=O)c3ccc(F)cc3)CC2)c2cc(F)ccc2c1` [Example 5-9, {6-Fluoro-4-[1-(4-fluoro-benzoyl)-piperidin-4-yloxy]-naphthalen-2-yl}-acetic acid], the pIC50 is 7.50.

Molecule `Cc1c(CC(=O)O)cc2ccc(F)cc2c1C(=O)N1CCN(c2ccccn2)CC1` [Example 2-2, [6-Fluoro-3-methyl-4-(4-pyridin-2-yl-piperazine-1-carbonyl)-naphthalen-2-yl]-acetic acid] showed a negative-log IC50 (pIC50) of 8.59.

The molecule `O=C(O)Cc1cc(OC2CCN(C(=O)Nc3cccc(F)c3)CC2)c2cc(F)ccc2c1` [Example 6-3, {6-Fluoro-4-[1-(3-fluoro-phenylcarbamoyl)-piperidin-4-yloxy]-naphthalen-2-yl}-acetic acid] showed a negative logarithm of the IC50 (pIC50) of 8.52. The pIC50 values of the last two molecules are within 0.2 log units of each other.

The molecule `Cc1c(CC(=O)O)cc2ccc(F)cc2c1C(=O)N1CCN(S(=O)(=O)C(F)(F)F)CC1` [Example 1-5, [6-Fluoro-3-methyl-4-(4-trifluoromethanesulfonyl-piperazine-1-carbonyl)-naphthalen-2-yl]-acetic acid] showed a negative-log IC50 (pIC50) of 8.12.

The molecule `COc1cc(OC)cc(N2CCN(C(=O)c3c(C)c(CC(=O)O)cc4ccc(F)cc34)CC2)c1` [Example 2-14, {4-[4-(3,5-Dimethoxy-phenyl)-piperazine-1-carbonyl]-6-fluoro-3-methyl-naphthalen-2-yl}-acetic acid] had a pIC50 of 7.18.

In turn, `Cc1c(CC(=O)O)cc2ccc(F)cc2c1C(=O)N1CCN(S(=O)(=O)c2ccc(F)cc2F)CC1` [Example 1-17, {4-[4-(2,4-Difluoro-benzenesulfonyl)-piperazine-1-carbonyl]-6-fluoro-3-methyl-naphthalen-2-yl}-acetic acid] had a pIC50 of 8.43.

Take `Cc1c(CC(=O)O)cc2ccc(F)cc2c1C(=O)N1CC2(C1)CN(S(=O)(=O)c1ccccc1)C2` [Example 1-10, [4-(6-Benzenesulfonyl-2,6-diaza-spiro[3.3]heptane-2-carbonyl)-6-fluoro-3-methyl-naphthalen-2-yl]-acetic acid]: the negative-log IC50 (pIC50) is 6.68.

`Cc1c(CC(=O)O)cc2ccc(F)cc2c1C(=O)N1CCN(S(=O)(=O)C(C)C)CC1` [Example 1-4, {6-Fluoro-3-methyl-4-[4-(propane-2-sulfonyl)-piperazine-1-carbonyl]-naphthalen-2-yl}-acetic acid] showed a negative-log IC50 (pIC50) of 7.81.

For `Cc1c(CC(=O)O)cc2ccc(F)cc2c1C(=O)N1CCN(c2ccc(F)cc2F)CC1` [Example 2-13, {4-[4-(2,4-Difluoro-phenyl)-piperazine-1-carbonyl]-6-fluoro-3-methyl-naphthalen-2-yl}-acetic acid], the negative logarithm of the IC50 (pIC50) was 6.86.

`Cc1c(CC(=O)O)cc2ccc(F)cc2c1C(=O)N1CCN(c2ccc(C(F)(F)F)cc2)CC1` [Example 2-19, {6-Fluoro-3-methyl-4-[4-(4-trifluoromethyl-phenyl)-piperazine-1-carbonyl]-naphthalen-2-yl}-acetic acid] had a pIC50 of 8.00.

`Cc1c(CC(=O)O)cc2ccc(F)cc2c1C(=O)N1CCN(c2ccccc2Cl)CC1` [Example 2-20, {4-[4-(2-Chloro-phenyl)-piperazine-1-carbonyl]-6-fluoro-3-methyl-naphthalen-2-yl}-acetic acid]: the pIC50 is 6.90. This pIC50 is 1.10 log units lower than that of the molecule before.

Take `Cc1c(CC(=O)O)cc2ccc(F)cc2c1C(=O)N1CCN(c2ccccc2)CC1` [Example 2-4, [6-Fluoro-3-methyl-4-(4-phenyl-piperazine-1-carbonyl)-naphthalen-2-yl]-acetic acid]: the negative logarithm of the IC50 (pIC50) was 7.23. This pIC50 lies 0.33 log units higher than the previous one.

The molecule `O=C(O)Cc1cc(OC2CCN(S(=O)(=O)C3CCCC3)CC2)c2cc(F)ccc2c1` [Example 4-5, [4-(1-Cyclopentanesulfonyl-piperidin-4-yloxy)-6-fluoro-naphthalen-2-yl]-acetic acid] showed a pIC50 of 8.00.

`O=C(O)Cc1cc(C(=O)N2CCN(S(=O)(=O)c3ccccc3)CC2)c2cc(OC(F)(F)F)ccc2c1` [Example 1-19, [4-(4-Benzenesulfonyl-piperazine-1-carbonyl)-6-trifluoromethoxy-naphthalen-2-yl]-acetic acid] showed a pIC50 of 8.77.

In turn, `Cc1c(CC(=O)O)cc2ccc(F)cc2c1C(=O)N1CCN(c2cccc(C(F)(F)F)c2)CC1` [Example 2-7, {6-Fluoro-3-methyl-4-[4-(3-trifluoromethyl-phenyl)-piperazine-1-carbonyl]-naphthalen-2-yl}-acetic acid] had a pIC50 of 7.24.

On to `Cc1c(CC(=O)O)cc2ccc(F)cc2c1C(=O)N1CCN(c2ncccn2)CC1` [Example 2-5, [6-Fluoro-3-methyl-4-(4-pyrimidin-2-yl-piperazine-1-carbonyl)-naphthalen-2-yl]-acetic acid], for which the pIC50 was 6.56.

`Cc1cccc(N2CCN(C(=O)c3c(C)c(CC(=O)O)cc4ccc(F)cc34)CC2)c1` [Example 2-6, [6-Fluoro-3-methyl-4-(4-m-tolyl-piperazine-1-carbonyl)-naphthalen-2-yl]-acetic acid]: the pIC50 was 7.09.

Take `O=C(O)Cc1cc(OC2CCN(S(=O)(=O)c3cccc(F)c3)CC2)c2cc(F)ccc2c1` [Example 4-7, {6-Fluoro-4-[1-(3-fluoro-benzenesulfonyl)-piperidin-4-yloxy]-naphthalen-2-yl}-acetic acid]: the pIC50 is 8.30.

The molecule `CCS(=O)(=O)N1CCN(C(=O)c2cc(CC(=O)O)cc3ccc(F)cc23)CC1` [Example 1-2, [4-(4-Ethanesulfonyl-piperazine-1-carbonyl)-6-fluoro-naphthalen-2-yl]-acetic acid] had a pIC50 of 8.14.

Molecule `O=C(O)Cc1cc(OC2CCN(C(=O)Cc3ccccc3)CC2)c2cc(F)ccc2c1` [Example 5-10, [6-Fluoro-4-(1-phenylacetyl-piperidin-4-yloxy)-naphthalen-2-yl]-acetic acid] showed a negative-log IC50 (pIC50) of 8.54.

Consider `Cc1c(CC(=O)O)cc2ccc(F)cc2c1C(=O)N1CCN(c2ccc(C(F)(F)F)cn2)CC1` [Example 2-22, {6-Fluoro-3-methyl-4-[4-(5-trifluoromethyl-pyridin-2-yl)-piperazine-1-carbonyl]-naphthalen-2-yl}-acetic acid], for which the pIC50 is 7.95.

`O=C(O)Cc1cc(OC2CCN(C(=O)C3CC3)CC2)c2cc(F)ccc2c1` [Example 5-4, [4-(1-Cyclopropanecarbonyl-piperidin-4-yloxy)-6-fluoro-naphthalen-2-yl]-acetic acid]: the negative-log IC50 (pIC50) is 7.17.

`CCC(=O)N1CCC(Oc2cc(CC(=O)O)cc3ccc(F)cc23)CC1` [Example 5-2, [6-Fluoro-4-(1-propionyl-piperidin-4-yloxy)-naphthalen-2-yl]-acetic acid] gave a pIC50 of 6.92.

Consider `Cc1c(CC(=O)O)cc2ccc(F)cc2c1C(=O)N1CCN(S(=O)(=O)Cc2ccccc2)CC1` [Example 1-13, [6-Fluoro-3-methyl-4-(4-phenylmethanesulfonyl-piperazine-1-carbonyl)-naphthalen-2-yl]-acetic acid], for which the negative logarithm of the IC50 (pIC50) is 8.27.

Regarding `Cc1c(CC(=O)O)cc2ccc(F)cc2c1C(=O)N1CCN(S(=O)(=O)c2ccc(F)c(F)c2)CC1` [Example 1-15, {4-[4-(3,4-Difluoro-benzenesulfonyl)-piperazine-1-carbonyl]-6-fluoro-3-methyl-naphthalen-2-yl}-acetic acid], the negative logarithm of the IC50 (pIC50) was 8.59. Against the preceding molecule, the pIC50 is 0.32 log units higher.

The molecule `O=C(O)Cc1cc(OC2CCN(C(=O)c3ccccc3)CC2)c2cc(F)ccc2c1` [Example 5-6, [4-(1-Benzoyl-piperidin-4-yloxy)-6-fluoro-naphthalen-2-yl]-acetic acid] had a pIC50 of 7.87.

The record behind these values is patent US8188090B2, “Naphthylacetic acids” (Hoffman-La Roche Inc., priority 2008, dated 2012).
